What was measured:
[1] = Cytotoxicity against human MOR cells measured after 8 days; type: functional, cell-based; settings: 192 h
[2] = Cytotoxicity against human NCI-H2373 cells measured after 8 days; type: functional, cell-based; settings: NCI-H2373, 192 h
[3] = biological target: Tyrosine-protein kinase ABL1 (Homo sapiens) (UniProt P00519); experiment: Inhibition of Abl (unknown origin) at 1 uM relative to control
[4] = test system: HEL; experiment: Cytotoxicity against human HEL cells measured after 8 days; type: functional, cell-based; settings: 192 h
[5] = test system: HT-29; experiment: Cytotoxicity against human HT-29 cells measured after 8 days; type: functional, cell-based; settings: HT-29, 192 h
[6] = biological target: cAMP-dependent protein kinase (PKA) (Homo sapiens) (UniProt P22694+P17612+P22612); experiment: Inhibition of PKA (unknown origin) at 1 uM relative to control; type: protein assay
[7] = biological target: T1, Bromodomain-containing protein 4 (Homo sapiens, UniProt O60885); experiment: Binding affinity to human partial length BRD4 bromodomain 1 long isoform (N44 to E168 residues) expressed in bacterial expression system by BROMOscan assay
[8] = biological target: Histone acetyltransferase KAT2B (Homo sapiens, UniProt Q92831); experiment: Binding affinity to human partial length PCAF (G715 to D831 residues) expressed in bacterial expression system by BROMOscan assay
Chain of Histone acetyltransferase KAT2B (Q92831 whole entry, the tested form may be a part): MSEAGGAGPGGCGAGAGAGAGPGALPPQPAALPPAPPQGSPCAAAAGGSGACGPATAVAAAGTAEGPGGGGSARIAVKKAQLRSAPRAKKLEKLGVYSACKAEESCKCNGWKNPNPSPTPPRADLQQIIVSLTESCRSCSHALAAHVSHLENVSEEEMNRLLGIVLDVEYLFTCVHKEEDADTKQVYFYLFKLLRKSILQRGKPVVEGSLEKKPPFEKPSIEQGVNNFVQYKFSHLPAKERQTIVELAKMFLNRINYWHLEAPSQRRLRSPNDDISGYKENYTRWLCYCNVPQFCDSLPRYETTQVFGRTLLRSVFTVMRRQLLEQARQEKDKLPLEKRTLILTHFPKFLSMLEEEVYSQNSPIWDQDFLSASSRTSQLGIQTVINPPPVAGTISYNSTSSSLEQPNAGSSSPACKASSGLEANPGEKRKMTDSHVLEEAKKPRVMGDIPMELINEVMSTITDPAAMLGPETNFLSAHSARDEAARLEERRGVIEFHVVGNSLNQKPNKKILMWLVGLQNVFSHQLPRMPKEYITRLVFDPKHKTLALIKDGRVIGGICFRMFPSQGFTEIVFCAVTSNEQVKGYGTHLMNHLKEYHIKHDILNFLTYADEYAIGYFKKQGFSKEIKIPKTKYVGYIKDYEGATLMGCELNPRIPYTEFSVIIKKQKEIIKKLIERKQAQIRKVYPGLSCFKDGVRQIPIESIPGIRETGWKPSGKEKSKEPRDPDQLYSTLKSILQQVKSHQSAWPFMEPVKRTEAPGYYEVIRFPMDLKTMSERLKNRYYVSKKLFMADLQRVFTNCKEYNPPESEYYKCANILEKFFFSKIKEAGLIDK

[9] = biological target: Bromodomain testis-specific protein (Homo sapiens, UniProt Q58F21); experiment: Binding affinity to human partial length BRDT bromodomain 2 (K250 to E382 residues) expressed in bacterial expression system by BROMOscan assay
[10] = Cytotoxicity against human OCI-M2 cells measured after 8 days; type: functional, cell-based; settings: OCI-M2, 192 h
[11] = biological target: Macrophage colony-stimulating factor 1 receptor (Homo sapiens) (UniProt P07333); experiment: Inhibition of CSF1R (unknown origin) at 1 uM relative to control
[12] = test system: AMO1; experiment: Cytotoxicity against human AMO1 cells measured after 8 days; type: functional, cell-based; settings: AMO1, 192 h
[13] = test system: LoVo; experiment: Cytotoxicity against human LoVo cells measured after 8 days; type: functional, cell-based; settings: 192 h
[14] = test system: CX-1; experiment: Cytotoxicity against human CX-1 cells measured after 8 days; type: functional, cell-based; settings: CX-1, 192 h
[15] = test system: NCI-H2009; experiment: Cytotoxicity against human NCI-H2009 cells measured after 8 days; type: functional, cell-based; settings: NCI-H2009, 192 h
[16] = test system: Caco-2; experiment: Cytotoxicity against human Caco-2 cells measured after 8 days; type: functional, cell-based; settings: Caco-2, 192 h
[17] = biological target: T1, Bromodomain-containing protein 4; experiment: Binding affinity to full length BRD4 short isoform (unknown origin) by BROMOscan assay
[18] = Cytotoxicity against human PL-21 cells measured after 8 days; type: functional, cell-based; settings: PL-21, 192 h
[19] = test system: DV-90; experiment: Cytotoxicity against human DV-90 cells measured after 8 days; type: functional, cell-based; settings: DV-90, 192 h
[20] = biological target: Ribosomal protein S6 kinase alpha-2 (Homo sapiens) (UniProt Q15349); experiment: Inhibition of RSK3 (unknown origin) at 1 uM relative to control
Chain of Ribosomal protein S6 kinase alpha-2 (Homo sapiens) (Q15349 whole entry): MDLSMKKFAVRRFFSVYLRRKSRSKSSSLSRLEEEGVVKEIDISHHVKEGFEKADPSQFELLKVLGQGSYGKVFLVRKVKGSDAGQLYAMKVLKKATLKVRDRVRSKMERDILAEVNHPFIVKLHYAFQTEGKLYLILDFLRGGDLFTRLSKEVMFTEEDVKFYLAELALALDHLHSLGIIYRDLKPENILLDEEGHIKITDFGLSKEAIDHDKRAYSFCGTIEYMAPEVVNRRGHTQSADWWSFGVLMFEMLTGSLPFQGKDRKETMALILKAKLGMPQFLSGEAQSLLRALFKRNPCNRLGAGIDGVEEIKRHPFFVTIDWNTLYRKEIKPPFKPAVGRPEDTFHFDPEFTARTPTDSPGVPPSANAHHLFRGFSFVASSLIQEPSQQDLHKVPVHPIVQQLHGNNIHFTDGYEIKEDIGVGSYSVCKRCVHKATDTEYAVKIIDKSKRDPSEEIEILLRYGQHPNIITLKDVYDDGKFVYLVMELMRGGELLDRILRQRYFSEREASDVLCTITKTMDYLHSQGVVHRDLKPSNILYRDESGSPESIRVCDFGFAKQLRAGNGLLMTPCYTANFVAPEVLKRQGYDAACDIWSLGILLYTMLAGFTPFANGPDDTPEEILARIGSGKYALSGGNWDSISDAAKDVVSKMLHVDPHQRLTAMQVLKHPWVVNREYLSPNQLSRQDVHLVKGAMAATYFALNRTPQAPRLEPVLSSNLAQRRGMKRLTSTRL

[21] = Cytotoxicity against human KMM-1 cells measured after 8 days; type: functional, cell-based; settings: KMM-1, 192 h
[22] = test system: MKN-45; experiment: Cytotoxicity against human MKN-45 cells measured after 8 days; type: functional, cell-based; settings: MKN-45, 192 h
[23] = test system: COLO-678; experiment: Cytotoxicity against human COLO-678 cells measured after 8 days; type: functional, cell-based; settings: COLO-678, 192 h
[24] = test system: K562; experiment: Cytotoxicity against human K562 cells measured after 8 days; type: functional, cell-based; settings: K562, 192 h
[25] = test system: NAMALVA; experiment: Cytotoxicity against human NAMALVA cells measured after 8 days; type: functional, cell-based; settings: 192 h
[26] = Cytotoxicity against human KMS-28PE cells measured after 8 days; type: functional, cell-based; settings: 192 h
[27] = biological target: Bromodomain-containing protein 3 (Homo sapiens, UniProt Q15059); experiment: Binding affinity to human partial length BRD3 bromodomain 2 (G306 to P416 residues) expressed in bacterial expression system by BROMOscan assay
Chain of Bromodomain-containing protein 3 (Q15059 whole entry, the tested form may be a part): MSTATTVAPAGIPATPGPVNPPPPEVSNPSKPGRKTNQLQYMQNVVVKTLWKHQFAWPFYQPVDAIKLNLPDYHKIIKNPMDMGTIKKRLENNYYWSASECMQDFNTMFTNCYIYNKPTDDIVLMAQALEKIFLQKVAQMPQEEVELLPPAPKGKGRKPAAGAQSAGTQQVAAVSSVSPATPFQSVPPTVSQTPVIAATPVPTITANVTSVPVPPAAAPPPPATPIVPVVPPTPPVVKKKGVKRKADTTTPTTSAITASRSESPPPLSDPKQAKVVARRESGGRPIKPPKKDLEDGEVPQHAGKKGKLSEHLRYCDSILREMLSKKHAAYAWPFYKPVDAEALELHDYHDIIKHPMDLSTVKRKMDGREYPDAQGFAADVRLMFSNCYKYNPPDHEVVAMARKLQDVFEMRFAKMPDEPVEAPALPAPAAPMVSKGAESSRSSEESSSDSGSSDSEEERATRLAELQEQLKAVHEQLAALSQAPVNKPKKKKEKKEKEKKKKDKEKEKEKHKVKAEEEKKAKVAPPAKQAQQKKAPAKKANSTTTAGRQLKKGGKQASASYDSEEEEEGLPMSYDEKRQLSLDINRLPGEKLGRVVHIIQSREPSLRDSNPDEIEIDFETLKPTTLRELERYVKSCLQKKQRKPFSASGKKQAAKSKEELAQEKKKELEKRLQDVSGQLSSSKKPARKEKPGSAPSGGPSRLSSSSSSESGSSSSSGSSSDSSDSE

[28] = Cytotoxicity against human COLO 206F cells measured after 8 days; type: functional, cell-based; settings: 192 h
[29] = biological target: Sodium-dependent noradrenaline transporter (Homo sapiens) (UniProt P23975); experiment: Displacement of [3H]nisoxetine from recombinant human norepinephrine transporter at 10 uM after 120 mins by scintillation counting analysis relative to control
[30] = Cytotoxicity against human NCI-H2731 cells measured after 8 days; type: functional, cell-based; settings: NCI-H2731, 192 h
[31] = test system: NCI-H441; experiment: Cytotoxicity against human NCI-H441 cells measured after 8 days; type: functional, cell-based; settings: NCI-H441, 192 h
[32] = test system: HCC4017; experiment: Cytotoxicity against human HCC4017 cells measured after 8 days; type: functional, cell-based; settings: HCC4017, 192 h
[33] = biological target: Histamine H1 receptor (Homo sapiens) (UniProt P35367); experiment: Displacement of [3H]pyrilamine from human recombinant histamine H1 receptor at 10 uM after 60 mins by scintillation counting analysis relative to control
[34] = biological target: T1, Bromodomain-containing protein 4; experiment: Binding affinity to BRD4 bromodomain 1/2 long isoform (unknown origin) by BROMOscan assay
[35] = test system: NCI-H1581; experiment: Cytotoxicity against human NCI-H1581 cells measured after 8 days; type: functional, cell-based; settings: NCI-H1581, 192 h
[36] = test system: SR; experiment: Cytotoxicity against human SR cells measured after 8 days; type: functional, cell-based; settings: 192 h
[37] = biological target: Mu-type opioid receptor (Homo sapiens) (UniProt P35372); experiment: Displacement of [3H]DAMGO from human recombinant mu receptor at 10 uM after 120 mins by scintillation counting analysis relative to control
[38] = test system: OCI-AML-5; experiment: Cytotoxicity against human OCI-AML5 cells measured after 8 days; type: functional, cell-based; settings: OCI-AML-5, 192 h
[39] = test system: SK-MES-1; experiment: Cytotoxicity against human SK-MES-1 cells measured after 8 days; type: functional, cell-based; settings: SK-MES-1, 192 h
[40] = biological target: Nucleosome-remodeling factor subunit BPTF (Homo sapiens, UniProt Q12830); experiment: Binding affinity to human partial length FALZ (S2791 to H2911 residues) expressed in bacterial expression system by BROMOscan assay
[41] = biological target: RAC-alpha serine/threonine-protein kinase (Homo sapiens) (UniProt P31749); experiment: Inhibition of AKT1 (unknown origin) at 1 uM relative to control
Chain of RAC-alpha serine/threonine-protein kinase (Homo sapiens) (P31749 whole entry, the tested form may be a part): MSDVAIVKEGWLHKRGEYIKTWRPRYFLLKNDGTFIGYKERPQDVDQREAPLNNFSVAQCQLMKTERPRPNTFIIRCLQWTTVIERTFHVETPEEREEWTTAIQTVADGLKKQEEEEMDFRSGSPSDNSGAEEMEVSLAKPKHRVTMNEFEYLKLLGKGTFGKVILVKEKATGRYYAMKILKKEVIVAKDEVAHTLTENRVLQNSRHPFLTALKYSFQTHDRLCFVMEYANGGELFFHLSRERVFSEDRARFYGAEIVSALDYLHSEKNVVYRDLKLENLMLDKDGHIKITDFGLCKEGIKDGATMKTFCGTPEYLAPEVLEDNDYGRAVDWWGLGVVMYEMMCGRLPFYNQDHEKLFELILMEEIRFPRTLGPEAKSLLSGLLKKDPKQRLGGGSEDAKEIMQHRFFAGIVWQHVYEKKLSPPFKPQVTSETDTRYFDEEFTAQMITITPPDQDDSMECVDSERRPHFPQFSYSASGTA

[42] = biological target: Transcription initiation factor TFIID subunit 1-like (Homo sapiens, UniProt Q8IZX4); experiment: Binding affinity to human partial length TAF1L bromodomain 2 (Q1523 to D1654 residues) expressed in bacterial expression system by BROMOscan assay
Chain of Transcription initiation factor TFIID subunit 1-like (Q8IZX4 whole entry, the tested form may be a part): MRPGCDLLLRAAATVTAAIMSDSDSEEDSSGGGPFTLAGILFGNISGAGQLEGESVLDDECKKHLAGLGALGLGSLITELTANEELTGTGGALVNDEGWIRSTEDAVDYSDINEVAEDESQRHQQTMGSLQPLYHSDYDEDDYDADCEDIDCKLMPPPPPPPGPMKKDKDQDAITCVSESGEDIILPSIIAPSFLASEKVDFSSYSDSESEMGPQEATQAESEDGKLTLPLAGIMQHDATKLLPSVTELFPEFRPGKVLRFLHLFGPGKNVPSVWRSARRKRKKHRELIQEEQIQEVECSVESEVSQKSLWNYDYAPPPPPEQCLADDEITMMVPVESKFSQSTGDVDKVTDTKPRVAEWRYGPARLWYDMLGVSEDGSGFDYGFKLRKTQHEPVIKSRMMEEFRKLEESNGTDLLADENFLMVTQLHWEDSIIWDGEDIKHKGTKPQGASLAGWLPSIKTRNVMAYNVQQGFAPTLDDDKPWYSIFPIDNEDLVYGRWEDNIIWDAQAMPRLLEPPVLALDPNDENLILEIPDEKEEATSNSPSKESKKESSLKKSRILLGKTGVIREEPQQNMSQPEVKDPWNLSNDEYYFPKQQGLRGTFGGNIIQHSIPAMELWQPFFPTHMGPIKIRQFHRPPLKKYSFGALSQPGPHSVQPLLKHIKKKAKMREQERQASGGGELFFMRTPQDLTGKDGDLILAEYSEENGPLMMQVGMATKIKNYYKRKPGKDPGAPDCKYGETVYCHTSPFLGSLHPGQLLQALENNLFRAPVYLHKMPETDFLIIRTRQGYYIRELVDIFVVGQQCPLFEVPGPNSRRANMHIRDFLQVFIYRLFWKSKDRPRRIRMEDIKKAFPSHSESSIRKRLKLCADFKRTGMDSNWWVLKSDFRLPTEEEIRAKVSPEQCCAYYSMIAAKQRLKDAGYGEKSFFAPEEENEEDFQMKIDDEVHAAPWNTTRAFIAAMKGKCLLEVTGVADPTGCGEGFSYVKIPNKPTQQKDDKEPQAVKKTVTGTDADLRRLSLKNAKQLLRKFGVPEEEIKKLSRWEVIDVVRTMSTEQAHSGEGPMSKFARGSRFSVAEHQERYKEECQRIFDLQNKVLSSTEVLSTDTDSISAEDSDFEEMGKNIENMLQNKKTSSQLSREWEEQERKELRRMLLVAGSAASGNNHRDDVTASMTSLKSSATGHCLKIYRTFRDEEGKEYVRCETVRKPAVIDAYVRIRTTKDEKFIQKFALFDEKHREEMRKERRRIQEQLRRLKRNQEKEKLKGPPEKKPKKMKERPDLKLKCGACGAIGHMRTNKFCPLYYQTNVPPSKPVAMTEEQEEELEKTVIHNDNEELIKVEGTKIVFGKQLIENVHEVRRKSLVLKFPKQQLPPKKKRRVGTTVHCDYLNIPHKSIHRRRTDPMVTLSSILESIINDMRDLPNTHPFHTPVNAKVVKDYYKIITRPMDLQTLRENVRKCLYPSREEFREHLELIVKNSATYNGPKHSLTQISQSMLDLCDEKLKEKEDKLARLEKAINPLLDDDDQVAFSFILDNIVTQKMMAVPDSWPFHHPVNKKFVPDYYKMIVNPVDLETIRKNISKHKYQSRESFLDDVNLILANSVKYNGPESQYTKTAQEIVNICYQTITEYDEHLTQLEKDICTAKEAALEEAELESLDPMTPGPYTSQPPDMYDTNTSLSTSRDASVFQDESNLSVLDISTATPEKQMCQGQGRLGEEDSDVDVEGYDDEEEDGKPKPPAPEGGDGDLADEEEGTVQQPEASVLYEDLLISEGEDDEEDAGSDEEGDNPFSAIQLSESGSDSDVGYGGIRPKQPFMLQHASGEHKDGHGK

[43] = test system: DLD-1; experiment: Cytotoxicity against human DLD-1 cells measured after 8 days; type: functional, cell-based; settings: DLD-1, 192 h
[44] = organism: Homo sapiens; experiment: Binding affinity to GABA-gated chloride channel (unknown origin) at 10 uM by antagonist radioligand-based assay relative to control; design: scale not given: the % may be the effect or the level left; settings: time 60.0 min
[45] = biological target: 5-hydroxytryptamine receptor 4 (Homo sapiens) (UniProt Q13639); experiment: Inhibition of human 5HT4e at 10 uM relative to control
[46] = test system: YMB-1-E; experiment: Cytotoxicity against human YMB-1-E cells measured after 8 days; type: functional, cell-based; settings: 192 h
[47] = test system: SK-BR-3; experiment: Cytotoxicity against human SK-BR-3 cells measured after 8 days; type: functional, cell-based; settings: SK-BR-3, 192 h
[48] = biological target: Aurora kinase B (Homo sapiens) (UniProt Q96GD4); experiment: Inhibition of Aurora B (unknown origin) at 1 uM relative to control
Chain of Aurora kinase B (Homo sapiens) (Q96GD4 whole entry): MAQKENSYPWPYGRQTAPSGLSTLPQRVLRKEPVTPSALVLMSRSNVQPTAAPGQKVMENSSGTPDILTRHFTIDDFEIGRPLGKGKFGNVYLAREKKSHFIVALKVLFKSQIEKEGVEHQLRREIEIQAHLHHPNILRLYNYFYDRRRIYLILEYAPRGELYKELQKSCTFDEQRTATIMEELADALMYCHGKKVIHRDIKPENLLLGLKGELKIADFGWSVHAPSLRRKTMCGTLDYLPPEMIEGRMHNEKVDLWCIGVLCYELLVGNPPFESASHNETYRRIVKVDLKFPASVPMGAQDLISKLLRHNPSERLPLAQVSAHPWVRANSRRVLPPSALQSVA

C/C=C/Cn1cc(-c2ccc(C(C)(C)O)cc2OC)c2cc[nH]c2c1=O
IC50 [1]: 20 µM | IC50 [2]: 20 µM | inhibition [3]: 10% | IC50 [4]: 14.8 µM | IC50 [5]: 20 µM | inhibition [6]: 3% | Kd [7]: 1600 nM | Kd [8]: > 10 µM | Kd [9]: 2.6 µM | IC50 [10]: 20 µM | inhibition [11]: 6.5% | IC50 [12]: 20 µM | IC50 [13]: 20 µM | IC50 [14]: 20 µM | IC50 [15]: 20 µM | IC50 [16]: 20 µM | Kd [17]: 580 nM | IC50 [18]: 20 µM | IC50 [19]: 20 µM | inhibition [20]: 5.5% | IC50 [21]: 20 µM | IC50 [22]: 20 µM | IC50 [23]: 20 µM | IC50 [24]: 20 µM | IC50 [25]: 20 µM | IC50 [26]: 20 µM | Kd [27]: 4 µM | IC50 [28]: 20 µM | Activity [29]: -6% | IC50 [30]: 20 µM | IC50 [31]: 20 µM | IC50 [32]: 20 µM | Activity [33]: 1% | Kd [34]: 1.7 µM | IC50 [35]: 20 µM | IC50 [36]: 20 µM | Activity [37]: 10% | IC50 [38]: 20 µM | IC50 [39]: 20 µM | Kd [40]: > 10 µM | inhibition [41]: 2.5% | Kd [42]: > 10 µM | IC50 [43]: 20 µM | Activity [44]: 15% | inhibition [45]: -1% | IC50 [46]: 20 µM | IC50 [47]: 20 µM | inhibition [48]: -0.5%

C/C=C/Cn1cc(-c2ccc(C(=O)N3CCOCC3)cc2)c2cc[nH]c2c1=O
IC50 [1]: 20 µM | IC50 [2]: 20 µM | inhibition [3]: -4.2% | IC50 [4]: 18 µM | IC50 [5]: 20 µM | inhibition [6]: -6.8% | Kd [7]: 1700 nM | Kd [8]: > 10 µM | Kd [9]: 3.5 µM | IC50 [10]: 5.21 µM | inhibition [11]: 2.8% | IC50 [12]: 20 µM | IC50 [13]: 20 µM | IC50 [14]: 20 µM | IC50 [15]: 20 µM | IC50 [16]: 20 µM | Kd [17]: 1200 nM | IC50 [18]: 20 µM | IC50 [19]: 20 µM | inhibition [20]: -4.3% | IC50 [21]: 20 µM | IC50 [22]: 20 µM | IC50 [23]: 20 µM | IC50 [24]: 20 µM | IC50 [25]: 20 µM | IC50 [26]: 20 µM | Kd [27]: 4.4 µM | IC50 [28]: 20 µM | Activity [29]: -3% | IC50 [30]: 20 µM | IC50 [31]: 20 µM | IC50 [32]: 20 µM | Activity [33]: 0% | Kd [34]: 8.8 µM | IC50 [35]: 20 µM | IC50 [36]: 20 µM | Activity [37]: 5% | IC50 [38]: 20 µM | IC50 [39]: 20 µM | Kd [40]: > 10 µM | inhibition [41]: -2.1% | Kd [42]: 0.61 µM | IC50 [43]: 20 µM | Activity [44]: 4% | inhibition [45]: 2% | IC50 [46]: 20 µM | IC50 [47]: 20 µM | inhibition [48]: -0.4%

C/C=C/Cn1cc(-c2cc(OC)c(C(=O)N3CCOCC3)cc2OC)c2cc(C)[nH]c2c1=O
IC50 [1]: 2 µM | IC50 [2]: 2 µM | inhibition [3]: 11% | IC50 [4]: 2 µM | IC50 [5]: 2 µM | inhibition [6]: 6% | Kd [7]: > 10000 nM | Kd [8]: > 10 µM | Kd [9]: > 10 µM | IC50 [10]: 2 µM | inhibition [11]: 6.5% | IC50 [12]: 2 µM | IC50 [13]: 2 µM | IC50 [14]: 2 µM | IC50 [15]: 2 µM | IC50 [16]: 2 µM | Kd [17]: > 10000 nM | IC50 [18]: 2 µM | IC50 [19]: 2 µM | inhibition [20]: 3.5% | IC50 [21]: 2 µM | IC50 [22]: 2 µM | IC50 [23]: 2 µM | IC50 [24]: 2 µM | IC50 [25]: 2 µM | IC50 [26]: 2 µM | Kd [27]: > 10 µM | IC50 [28]: 2 µM | Activity [29]: 0% | IC50 [30]: 2 µM | IC50 [31]: 2 µM | IC50 [32]: 2 µM | Activity [33]: 1% | Kd [34]: > 10 µM | IC50 [35]: 2 µM | IC50 [36]: 2 µM | Activity [37]: 9% | IC50 [38]: 2 µM | IC50 [39]: 2 µM | Kd [40]: > 10 µM | inhibition [41]: 1.5% | Kd [42]: > 10 µM | IC50 [43]: 2 µM | Activity [44]: 14% | inhibition [45]: -8% | IC50 [46]: 2 µM | IC50 [47]: 2 µM | inhibition [48]: 4.5%

C/C=C/Cn1cc(-c2cc(OC)c(C(C)(C)O)cc2OC)c2cc(C)[nH]c2c1=O
Kd [7]: 9400 nM | Kd [8]: > 10 µM | Kd [9]: 6.6 µM | Kd [17]: > 10000 nM | Kd [27]: > 10 µM | Kd [34]: > 10 µM | Kd [40]: > 10 µM | Kd [42]: > 10 µM

Source: ChEMBL document CHEMBL5260810, “Inhibition of bromodomain-containing protein 9 for the prevention of epigenetically-defined drug resistance” (Bioorg Med Chem Lett, 2017)
